The target in the assay is IRAK4 (Homo sapiens (Human), UniProt Q9NWZ3). Briefly: IRAK4 Kinase Assay. In kind it is biochemical. Particulars: IMAP fluorescence polarization, 0.5 nM GST tagged IRAK4, 100 μM ATP, 30 minutes at 25° C.

Where a name gives a salt, the structure may show the parent alone. Read-outs that look alike come from different tables or passages of the source.

Our source for the IC50 values is patent US10329294B2, “Pyrazolopyrimidine inhibitors of IRAK4 activity” (MERCK SHARP & DOHME CORP., priority 2015, dated 2019).

Sequence of IRAK4 (Q9NWZ3 whole entry): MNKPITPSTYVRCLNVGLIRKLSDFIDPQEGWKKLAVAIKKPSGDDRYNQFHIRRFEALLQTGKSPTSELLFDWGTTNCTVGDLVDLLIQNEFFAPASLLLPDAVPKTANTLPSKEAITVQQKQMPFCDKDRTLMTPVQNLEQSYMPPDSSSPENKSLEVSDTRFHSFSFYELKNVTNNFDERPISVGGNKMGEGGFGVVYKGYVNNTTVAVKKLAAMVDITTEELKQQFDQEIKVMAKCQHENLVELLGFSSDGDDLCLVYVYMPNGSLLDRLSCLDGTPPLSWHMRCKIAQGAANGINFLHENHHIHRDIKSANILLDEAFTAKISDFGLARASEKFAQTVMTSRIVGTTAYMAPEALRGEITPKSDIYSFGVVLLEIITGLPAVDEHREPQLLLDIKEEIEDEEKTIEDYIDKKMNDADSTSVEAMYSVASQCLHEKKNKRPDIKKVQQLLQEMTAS

Broadly, the IC50 is the point on the concentration scale where inhibition reaches its midpoint. For `CC(C)(C)n1cc(NC(=O)c2cnn3ccc(N[C@@H]4CCCC[C@@H]4N)nc23)c(C(F)(F)F)n1` [Example 294, 5-{[(1R,2S)-2-aminocyclohexyl]amino}-N-[1-tert-butyl-3-(trifluoromethyl)-1H-pyrazol-4-yl]pyrazolo[1,5-a]pyrimidine-3-carboxamide trifluoroacetate], where the note is “read-out: IRAK4 IC50”, the IC50 was determined as 1 nM.
As to `Cn1cc(NC(=O)c2cnn3ccc(N4[C@H]5CCNC[C@@H]4CC5)nc23)c(C(F)(F)F)n1` (single isomer, unassigned) [Example 222, 5-[(1R,6S)- or (1S,6R)-3,9-diazabicyclo[4.2.1]non-9-yl]-N-[1-methyl-3-(trifluoromethyl)-1H-pyrazol-4-yl]pyrazolo[1,5-a]pyrimidine-3-carboxamide trifluoroacetate], the IC50 (read-out: IRAK4 IC50) amounted to 168 nM.
With `CC(C)(C)n1cc(NC(=O)c2cnn3ccc(N[C@@H]4CCCC[C@@H]4O)nc23)c(C(F)(F)F)n1` [Example 48, N-[1-tert-butyl-3-(trifluoromethyl)-1H-pyrazol-4-yl]-5-{[(1R,2S)-2-hydroxycyclohexyl]amino} pyrazolo[1,5-a]pyrimidine-3-carboxamide trifluoroacetate], the IC50 (read-out: IRAK4 IC50) stood at 259 nM.
`Cn1cc(NC(=O)c2cnn3ccc(N4CCNCC4(C)C)nc23)c(C(F)(F)F)n1` [Example 216, 5-(2,2-dimethylpiperazin-1-yl)-N-[1-methyl-3-(trifluoromethyl)-1H-pyrazol-4-yl]pyrazolo[1,5-a]pyrimidine-3-carboxamide trifluoroacetate]: the IC50 (read-out: IRAK4 IC50) worked out at 127 nM.
`N[C@H]1CCCC[C@H]1Nc1ccn2ncc(C(=O)Nc3ccsc3Br)c2n1` [Example 129, 5-{[(1R,2S)-2-aminocyclohexyl]amino}-N-(2-bromothiophen-3-yl)pyrazolo[1,5-a]pyrimidine-3-carboxamide trifluoroacetate]: for the setting “read-out: IRAK4 IC50”, the IC50 was determined as 2 nM.
On the same count and under the same terms, in the case of `N#Cc1ccccc1NC(=O)c1cnn2ccc(NC3CCCCNC3)nc12` (centres unmarked) [Example 272, 5-(azepan-3-ylamino)-N-(2-cyanophenyl)pyrazolo[1,5-a]pyrimidine-3-carboxamide trifluoroacetate] it was 57 nM.
On to `O=C(Nc1cscc1C(F)F)c1cnn2ccc(N3C[C@@H]4CC[C@H]3CN4)nc12` (single isomer, unassigned) [Example 154, 5-[(1S,4S)- or (1R,4R)-2,5-diazabicyclo[2.2.2]oct-2-yl]-N-[4-(difluoromethyl)thiophen-3-yl]pyrazolo[1,5-a]pyrimidine-3-carboxamide trifluoroacetate], for which the IC50 (read-out: IRAK4 IC50) was 86 nM.
Still for that read-out and setting: the result for `N#Cc1sccc1NC(=O)c1cnn2ccc(N3CCCNCC3)nc12` [Example 111, N-(2-cyanothiophen-3-yl)-5-(1,4-diazepan-1-yl)pyrazolo[1,5-a]pyrimidine-3-carboxamide trifluoroacetate] reads 464 nM; that for `Cn1cc(NC(=O)c2cnn3ccc(N4CCC(F)(F)[C@H](N)C4)nc23)c(C(F)(F)F)n1` (single isomer, unassigned) [Example 192, 5-[(4R)- or (4S)-(3-amino-4,4-difluoropiperidin-1-yl)-N-[1-methyl-3-(trifluoroemthyl)-1H-pyrazol-4-yl]pyrazolo[1,5-a]pyrimidine-3-carboxamide trifluoroacetate], 23 nM; that for `Cn1cc(NC(=O)c2cnn3ccc(N4CCC[C@@H](N)C4)nc23)c(C(F)(F)F)n1` [Example 32, 5-[(3R)-3-aminopiperidin-1-yl]-N-[1-methyl-3-(trifluoromethyl)-1H-pyrazol-4-yl]pyrazolo[1,5-a]pyrimidine-3-carboxamide], 3 nM.
`Cn1cc(NC(=O)c2cnn3ccc(N[C@@H]4CCCC(O)[C@@H]4N)nc23)c(C(F)(F)F)n1` (single isomer, unassigned) [Example 201, 5-{[(1R,2R)- or (1S,2S)-2-amino-3-hydroxycyclohexyl]amino}-N-[1-methyl-3-(trifluoromethyl)-1H-pyrazol-4-yl]pyrazolo[1,5-a]pyrimidine-3-carboxamide] registered an IC50 (IRAK4 IC50 (nM)) of 4 nM.
`CC(C)(C)n1cc(NC(=O)c2cnn3ccc(N4CCNCC5(CC5)C4)nc23)c(C(F)(F)F)n1` [Example 47, N-[1-tert-butyl-3-(trifluoromethyl)-1H-pyrazol-4-yl]-5-(5,8-diazaspiro[2.6]non-5-yl)pyrazolo[1,5-a]pyrimidine-3-carboxamide trifluoroacetate]: under “read-out: IRAK4 IC50”, the IC50 turned out to be 49 nM.
For the compound `CC(C)n1cc(NC(=O)c2cnn3ccc(N[C@@H]4CCCC[C@@H]4O)nc23)c(C(F)F)n1` [Example 199, N-[3-(difluoromethyl)-1-(1-methylethyl)-1H-pyrazol-4-yl]-5-{[(1R,2S)-2-hydroxycyclohexyl]amino} pyrazolo[1,5-a]pyrimidine-3-carboxamide], under “read-out: IRAK4 IC50”, the IC50 worked out at 9 nM.
`Cn1cc(NC(=O)c2cnn3ccc(N[C@@H]4CCCC(F)[C@@H]4N)nc23)c(C(F)(F)F)n1` (single isomer, unassigned) [Example 203, 5-{[(1R,2R)- or (1S,2S)-2-amino-3-fluorocyclohexyl]amino}-N-[1-methyl-3-(trifluoromethyl)-1H-pyrazol-4-yl]pyrazolo[1,5-a]pyrimidine-3-carboxamide]: the IC50 (read-out: IRAK4 IC50) came out at 7 nM.
As for `O=C(Nc1cscc1C(F)F)c1cnn2ccc(N3CCCNCC3)nc12` [Example 120, 5-(1,4-diazepan-1-yl)-N-[4-(difluoromethyl)thiophen-3-yl]pyrazolo[1,5-a]pyrimidine-3-carboxamide trifluoroacetate], for the setting “read-out: IRAK4 IC50”, the IC50 stood at 84 nM.
Still for that read-out and setting: the result for `CC(C)n1cc(NC(=O)c2cnn3ccc(N4CCNCC5(CC5)C4)nc23)c(C(F)(F)F)n1` [Example 51, 5-(5,8-diazaspiro[2.6]non-5-yl)-N-[1-(1-methylethyl)-3-(trifluoromethyl)-1H-pyrazol-4-yl]pyrazolo[1,5-a]pyrimidine-3-carboxamide] reads 32 nM; that for `Cn1cc(NC(=O)c2cnn3ccc(N4C5CCC6NC5CCC64)nc23)c(C(F)(F)F)n1` [Example 102, 5-(2,7-diazatricyclo[4.4.0.0~3,8~]dec-2-yl)-N-[1-methyl-3-(trifluoromethyl)-1H-pyrazol-4-yl]pyrazolo[1,5-a]pyrimidine-3-carboxamide trifluoroacetate], 163 nM.
`Cn1cc(NC(=O)c2cnn3ccc(N4C[C@H]5CN[C@H](C5)C4)nc23)c(C(F)(F)F)n1` (single isomer, unassigned) [Example 225, 5-[(1S,5S)- or (1R,5R)-3,6-diazabicyclo[3.2.1]oct-3-yl]-N-[1-methyl-3-(trifluoromethyl)-1H-pyrazol-4-yl]pyrazolo[1,5-a]pyrimidine-3-carboxamide]: the IC50 (read-out: IRAK4 IC50) was 310 nM.
For the compound `Cn1cc(NC(=O)c2cnn3ccc(N4CCC[C@@H](O)C4)nc23)c(C(F)(F)F)n1` [Example 23, 5-[(3R)-3-hydroxypiperidin-1-yl]-N-[1-methyl-3-(trifluoromethyl)-1H-pyrazol-4-yl]pyrazolo[1,5-a]pyrimidine-3-carboxamide], the IC50 (read-out: IRAK4 IC50) was determined as 0.9 nM.
For the compound `Cn1cc(NC(=O)c2cnn3ccc(N4CC5CC4CN5)nc23)c(C(F)(F)F)n1` (centres unmarked) [Example 13, 5-(2,5-diazabicyclo[2.2.1]hept-2-yl)-N-[1-methyl-3-(trifluoromethyl)-1H-pyrazol-4-yl]pyrazolo[1,5-a]pyrimidine-3-carboxamide hydrochloride], the IC50 (read-out: IRAK4 IC50) came out at 179 nM.
